Tested on: Utrophin A promoter linked to a luciferase reporter gene
Experiment: Luciferase reporter assay (murine H2K cells)
Assay type: cell-based
Settings: for Activity: luciferase reporter assay in murine H2K cells, classified relative to control; for activity at 10 µM: Mus musculus, H2K mdx, luciferase level relative to control, H2K/mdx/Utro A reporter cells, compound 10 μM final concentration, read-out: Activity
Method in brief: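 Immortalized mdx mouse H2K myoblasts stably carrying a ~5 kb utrophin A promoter–luciferase construct, kept at 33° C, 10% CO2. After 24 hrs plating, compound added at 10 μM final for 48 hrs; luciferase light output read after in-situ lysis.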

Compound | Activity | activity at 10 µM
Cc1ccc2[nH]c(-c3ccc(NC(=O)c4ccco4)cc3)nc2c1 [Example 580] | +++ (Between 301% and 400% relative to control) | 
O=C(Cc1cccs1)Nc1ccc(-c2nc3ccccc3[nH]2)cc1 [Example 493] | + (Up to 200% relative to control) | 
O=C(Nc1ccc2oc(-c3ccc(Cl)cc3)nc2c1)C(F)(F)F [Example 211, N-(2-(4-chlorophenyl)benzo[d]oxazol-5-yl)-2,2,2-trifluoroacetamide] |  | 201 to 300%
O=C(CCc1ccccc1)Nc1ccc2oc(-c3ccc(Cl)cc3)nc2c1 [Example 98, N-(2-(4-chlorophenyl)benzo[d]oxazol-5-yl)-3-phenylpropanamide] |  | < 200%
O=C(Nc1ccc2oc(-c3ccccc3)nc2c1)c1ccc2ccccc2c1 [Example 36, N-(2-phenylbenzo[d]oxazol-5-yl)-2-naphthamide] |  | < 200%
CC(C)C(=O)Nc1ccc2sc(-c3cccc(Cl)c3)nc2c1 [Example 296, N-(2-(3-chlorophenyl)benzo[d]thiazol-5-yl)isobutyramide] |  | > 401%
CCCCC(=O)Nc1ccc2oc(-c3ccc(N(CC)CC)cc3)nc2c1 [Example 77, N-(2-(4-(diethylamino)phenyl)benzo[d]oxazol-5-yl)pentanamide] |  | 201 to 300%
Cc1ccc2[nH]c(-c3ccc(N)cc3)nc2c1 [Example 532] | + (Up to 200% relative to control) | 
CC(C)C(=O)Nc1ccc2oc(CCc3ccccc3)nc2c1 [Example 302, N-(2-phenethylbenzo[d]oxazol-5-yl)isobutyramide] |  | < 200%
c1ccc(NNc2nc3ccccc3s2)cc1 [Example 552] | + (Up to 200% relative to control) | 
Nc1ccc(-c2nc3ccccc3o2)c(O)c1 [Example 484] | ++ (Between 201% and 300% relative to control) | 
Cc1ccc2nc(-c3ccc(NC(=O)CSc4nnc[nH]4)cc3)sc2c1 [Example 654] | +++ (Between 301% and 400% relative to control) | 
O=[N+]([O-])c1cnc2oc(-c3ccccc3)nc2c1 [Example 153, 6-nitro-2-phenyloxazolo[5,4-b]pyridine] |  | < 200%
CCS(=O)(=O)c1ccc2oc(-c3cccc(Cl)c3)nc2c1 [Example 293, 2-(3-chlorophenyl)-5-(ethylsulfonyl)benzo[d]oxazole] |  | > 401%
CS(=O)(=O)c1ccc2oc(-c3ccc(Cl)cc3)nc2c1 [Example 400, 2-(4-chlorophenyl)-5-(methylsulfonyl)benzo[d]oxazole] |  | 201 to 300%
O=C(Nc1ccc2oc(-c3cccnc3)nc2c1)c1cccnc1 [Example 81, N-(2-(pyridin-3-yl)benzo[d]oxazol-5-yl)nicotinamide] |  | < 200%
Cc1ccc(-c2nc3cc(NC(=O)C(C)(C)C)ccc3o2)cc1 [Example 208, N-(2-p-tolylbenzo[d]oxazol-5-yl)pivalamide] |  | 201 to 300%
Nc1ccc(-c2nc3cc(Cl)c(Cl)cc3o2)cc1 [Example 440, 4-(5,6-dichlorobenzo[d]oxazol-2-yl)aniline] |  | > 401%
O=C(O)c1ccc2oc(-c3ccccc3)nc2c1 [Example 107, 2-phenylbenzo[d]oxazole-5-carboxylic acid] |  | 301 to 400%
Nc1ccc2sc(-c3ccccc3Cl)nc2c1 [Example 282, 2-(2-chlorophenyl)benzo[d]thiazol-5-amine] |  | > 401%

Compound | Activity | activity at 10 µM
Cc1ccc(C)c(OCc2nc3ccccc3[nH]2)c1 [Example 548] | + (Up to 200% relative to control) | 
CC(C)C(=O)Nc1ccc2oc(-c3ccc(Cl)c(Cl)c3)nc2c1 [Example 268, N-(2-(3,4-dichlorophenyl)benzo[d]oxazol-5-yl)isobutyramide] |  | > 401%
COc1ccc(-c2nc3ccccc3s2)cc1NC(C)=O [Example 542] | ++ (Between 201% and 300% relative to control) | 
COc1ccc(C(=O)Nc2ccc3oc(-c4ccccc4)nc3c2)cc1 [Example 25, 4-methoxy-N-(2-phenylbenzo[d]oxazol-5-yl)benzamide] |  | < 200%
COc1cccc(-c2nc3ccccc3s2)c1 [Example 606] | +++ (Between 301% and 400% relative to control) | 
CCN(CC)c1ccc(-c2nc3cc(NC(=O)c4ccc(N(C)C)cc4)ccc3o2)cc1 [Example 67, N-(2-(4-(diethylamino)phenyl)benzo[d]oxazol-5-yl)-4-(dimethylamino)benzamide] |  | 201 to 300%
Cc1ccc2nc(-c3ccc(Cl)cc3)oc2c1 [Example 457, 2-(4-Chlorophenyl)-6-methylbenzo[d]oxazole] |  | > 401%
CC(C)c1ccc2oc(-c3ccc(N)cc3O)nc2c1 [Example 565] | +++ (Between 301% and 400% relative to control) | 
CN1CCN(c2ccc(-c3nc4cc(N)ccc4o3)cc2)CC1 [Example 151, 2-(4-(4-methylpiperazin-1-yl)phenyl)benzo[d]oxazol-5-amine] |  | 201 to 300%
CC(C)C(=O)Nc1ccc2[nH]c(-c3ccccc3)nc2c1 [Example 188, N-(2-phenyl-1H-benzo[d]imidazol-5-yl)isobutyramide] |  | 301 to 400%
CCc1ccc2oc(-c3cccc(N)c3)nc2c1 [Example 502] | ++ (Between 201% and 300% relative to control) | 
CC(C)C(=O)Nc1ccc2oc(-c3ccc4cc(Br)ccc4c3)nc2c1 [Example 413, N-(2-(6-bromonaphthalen-2-yl)benzo[d]oxazol-5-yl)isobutyramide] |  | < 200%
Clc1ccc(SCc2ccc(-c3nc4ccccc4[nH]3)cc2)cc1 [Example 460] | + (Up to 200% relative to control) | 
Nc1ccc(-c2nc3ccccc3o2)cc1 [Example 478] | ++ (Between 201% and 300% relative to control) | 
CCCC(=O)Nc1ccc2[nH]c(-c3ccc(Cl)cc3)nc2c1 [Example 178, N-(2-(4-chlorophenyl)-1H-benzo[d]imidazol-5-yl)butyramide] |  | < 200%
c1cc(NCc2ccncc2)cc(-c2nc3ccccc3s2)c1 [Example 647] | +++ (Between 301% and 400% relative to control) | 
O=C(Nc1cccc(-c2nc3ccccc3[nH]2)c1)c1cccs1 [Example 504] | + (Up to 200% relative to control) | 
Cc1ccc(-c2nc3cc(NCC(C)C)ccc3o2)cc1 [Example 186, N-isobutyl-2-p-tolylbenzo[d]oxazol-5-amine] |  | 301 to 400%
CCC(=O)Nc1ccc2nn(-c3ccc(Cl)cc3)nc2c1 [Example 148, N-(2-(4-chlorophenyl)-2H-benzo[d][1,2,3]triazol-5-yl)propionamide] |  | > 401%
Fc1cc2nc(-c3ccc4ccccc4c3)oc2cc1F [Example 452, 5,6-Difluoro-2-(naphthalen-2-yl)benzo[d]oxazole] |  | > 401%

Compound | Activity | activity at 10 µM
CC(O)c1ccc2oc(-c3ccc(Cl)c(Cl)c3)nc2c1 (centres unmarked) [Example 456, 2-(3′,4′-Dichlorophenyl)-5-(1′-hydroxyethyl)-benzoxazole] |  | > 401%
Cc1ccc(-c2nc3cc(C(N)=O)ccc3o2)cc1 [Example 218, 2-p-tolylbenzo[d]oxazole-5-carboxamide] |  | > 401%
CCS(=O)(=O)c1ccc2oc(-c3ccc(Cl)cc3)nc2c1 [Example 180, 2-(4-chlorophenyl)-5-(ethylsulfonyl)benzo[d]oxazole] |  | > 401%
O=C(Nc1ccc(-c2nc3ccccc3s2)cc1)C1CCCO1 (centres unmarked) [Example 680] | ++ (Between 201% and 300% relative to control) | 
Clc1ccc(-c2nc3c(ccc4ccccc43)o2)cc1 [Example 409, 2-(4-chlorophenyl)naphtho[1,2-d]oxazole] |  | > 401%
Nc1c(C(=O)Nc2ccc(F)cc2)sc2nc3c(cc12)CCC3 [Example 628] | ++++ (Above 401% relative to control) | 
Cc1ccc(-c2nc3ccccc3[nH]2)cc1 [Example 613] | +++ (Between 301% and 400% relative to control) | 
Cc1ccc(-c2nc3cc(NC(=O)C(C)C)ccc3o2)cc1 [Example 118, N-(2-p-tolylbenzo[d]oxazol-5-yl)isobutyramide] |  | 201 to 300%
Nc1ccc2oc(-c3ccc(-c4ccccc4)cc3)nc2c1 [Example 401, 2-(biphenyl-4-yl)benzo[d]oxazol-5-amine] |  | 301 to 400%
CC(=O)Nc1ccc2oc(-c3ccc(Cl)cc3Cl)nc2c1 [Example 517] | ++ (Between 201% and 300% relative to control) | 
CCS(=O)(=O)c1ccc2oc(-c3ccccc3Cl)nc2c1 [Example 298, 2-(2-Chlorophenyl)-5-(ethylsulfonyl)benzo[d]oxazole] |  | 201 to 300%
CCS(=O)(=O)c1ccc2oc(-c3ccc4ccccc4c3O)nc2c1 [Example 437, 2-(5-(ethylsulfonyl)benzo[d]oxazol-2-yl)naphthalen-1-ol] |  | > 401%
CCc1ccc2oc(-c3cccc(NC(C)=O)c3)nc2c1 [Example 642] | +++ (Between 301% and 400% relative to control) | 
COc1ccc(-c2nc3ccccc3n2C)cc1OC [Example 521] | + (Up to 200% relative to control) | 
CC(C)S(=O)(=O)Nc1ccc2oc(-c3ccccc3)nc2c1 [Example 220, N-(2-phenylbenzo[d]oxazol-5-yl)propane-2-sulfonamide] |  | 201 to 300%
C[C@H](N)C(=O)Nc1ccc2oc(-c3ccc(Cl)cc3)nc2c1 [Example 272, (S)-2-amino-N-(2-(4-chlorophenyl)benzo[d]oxazol-5-yl)propanamide] |  | 301 to 400%
O=C(Nc1ccc2oc(-c3cccnc3)nc2c1)c1ccc(Cl)c(Cl)c1 [Example 45, 3,4-dichloro-N-(2-(pyridin-3-yl)benzo[d]oxazol-5-yl)benzamide] |  | < 200%
CN[C@@H](C)C(=O)Nc1ccc2oc(-c3ccc(Cl)cc3)nc2c1 [Example 377, (S)-N-(2-(4-chlorophenyl)benzo[d]oxazol-5-yl)-2-(methylamino)propanamide] |  | 301 to 400%
Nc1ccc(-c2nc3cc(Cl)ccc3o2)cc1 [Example 289, 4-(5-chlorobenzo[d]oxazol-2-yl)aniline] |  | > 401%

— patent US8501713B2, “Drug combinations for the treatment of duchenne muscular dystrophy” (Summit Corporation PLC, priority 2007, dated 2013)
